# Earlier results in patent US10806143B2, “Herbicidal composition in granular form” (priority 2009, dated 2020).
# Details: at 20° C.
structure (smiles),measurement,value
"CCOC(=O)C(Cl)Cc1cc(-n2nc(C)n(C(F)F)c2=O)c(F)cc1Cl (stereo not shown) [carfentrazone-ethyl, ethyl 2-chloro-3-[2-chloro-5-(4-difluoromethyl-3-methyl-5-oxo-4,5-dihydro-[1,2,4]triazol-1-yl)-4-fluorophenyl]propionate]",water solubility,22 milligrams per liter
